Reference: PMC12526275, “hERG Channel Blockade and Antagonistic Interactions of Three Steroidal Alkaloids from Fritillaria Species” (Molecules, 2025)

Experiments:
Format in all cases: cell-based
[1] = molecular target: T1, hERG channel (human Ether-a-go-go-Related Gene, Kv11.1) (Homo sapiens, UniProt Q12809); experiment: manual whole-cell patch clamp, hERG tail currents in stably expressing HEK293 cells
T1 construct: gene KCNH2

[2] = molecular target: T1, hERG channel (human Ether-a-go-go-Related Gene, Kv11.1); experiment: manual whole-cell patch clamp, hERG tail currents in stably expressing HEK293 cells; IC50 extrapolated (maximum tested […])
[3] = molecular target: T2, hERG channel mutant S631A (Homo sapiens, UniProt Q12809, S631A); experiment: whole-cell patch clamp, transiently transfected HEK293 cells; inhibition at […]
T2 construct: gene KCNH2
T2 sequence (Q12809 whole entry S631A): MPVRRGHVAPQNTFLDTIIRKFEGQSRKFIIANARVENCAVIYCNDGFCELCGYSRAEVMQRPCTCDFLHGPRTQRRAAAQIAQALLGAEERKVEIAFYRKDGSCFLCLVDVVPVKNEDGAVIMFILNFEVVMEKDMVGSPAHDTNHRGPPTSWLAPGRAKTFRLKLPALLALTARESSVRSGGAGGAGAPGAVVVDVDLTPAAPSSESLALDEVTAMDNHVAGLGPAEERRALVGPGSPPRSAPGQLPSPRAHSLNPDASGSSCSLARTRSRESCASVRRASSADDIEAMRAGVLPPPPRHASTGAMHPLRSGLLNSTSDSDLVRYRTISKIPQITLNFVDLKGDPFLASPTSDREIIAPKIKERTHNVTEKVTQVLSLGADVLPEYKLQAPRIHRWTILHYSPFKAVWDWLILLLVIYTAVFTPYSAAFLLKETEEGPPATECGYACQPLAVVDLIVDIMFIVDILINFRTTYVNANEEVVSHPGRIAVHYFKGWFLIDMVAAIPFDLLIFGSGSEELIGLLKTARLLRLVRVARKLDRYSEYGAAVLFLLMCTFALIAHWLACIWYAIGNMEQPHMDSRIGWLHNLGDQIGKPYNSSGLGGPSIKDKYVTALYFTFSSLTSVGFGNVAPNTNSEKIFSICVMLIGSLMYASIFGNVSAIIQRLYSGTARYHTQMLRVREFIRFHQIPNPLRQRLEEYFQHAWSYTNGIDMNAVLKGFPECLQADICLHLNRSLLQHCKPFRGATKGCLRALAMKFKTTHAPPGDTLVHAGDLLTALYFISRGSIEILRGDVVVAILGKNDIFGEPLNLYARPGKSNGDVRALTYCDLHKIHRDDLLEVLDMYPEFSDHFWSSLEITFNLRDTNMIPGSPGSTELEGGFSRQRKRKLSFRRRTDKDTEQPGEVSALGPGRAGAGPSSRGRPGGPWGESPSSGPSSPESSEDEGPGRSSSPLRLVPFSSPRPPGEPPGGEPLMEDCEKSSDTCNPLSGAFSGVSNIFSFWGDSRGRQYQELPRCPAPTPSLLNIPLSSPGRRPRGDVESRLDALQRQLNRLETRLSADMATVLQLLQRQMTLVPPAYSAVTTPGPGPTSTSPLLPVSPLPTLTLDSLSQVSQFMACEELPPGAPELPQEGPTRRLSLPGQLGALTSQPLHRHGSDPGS

T1 sequence (Q12809 whole entry): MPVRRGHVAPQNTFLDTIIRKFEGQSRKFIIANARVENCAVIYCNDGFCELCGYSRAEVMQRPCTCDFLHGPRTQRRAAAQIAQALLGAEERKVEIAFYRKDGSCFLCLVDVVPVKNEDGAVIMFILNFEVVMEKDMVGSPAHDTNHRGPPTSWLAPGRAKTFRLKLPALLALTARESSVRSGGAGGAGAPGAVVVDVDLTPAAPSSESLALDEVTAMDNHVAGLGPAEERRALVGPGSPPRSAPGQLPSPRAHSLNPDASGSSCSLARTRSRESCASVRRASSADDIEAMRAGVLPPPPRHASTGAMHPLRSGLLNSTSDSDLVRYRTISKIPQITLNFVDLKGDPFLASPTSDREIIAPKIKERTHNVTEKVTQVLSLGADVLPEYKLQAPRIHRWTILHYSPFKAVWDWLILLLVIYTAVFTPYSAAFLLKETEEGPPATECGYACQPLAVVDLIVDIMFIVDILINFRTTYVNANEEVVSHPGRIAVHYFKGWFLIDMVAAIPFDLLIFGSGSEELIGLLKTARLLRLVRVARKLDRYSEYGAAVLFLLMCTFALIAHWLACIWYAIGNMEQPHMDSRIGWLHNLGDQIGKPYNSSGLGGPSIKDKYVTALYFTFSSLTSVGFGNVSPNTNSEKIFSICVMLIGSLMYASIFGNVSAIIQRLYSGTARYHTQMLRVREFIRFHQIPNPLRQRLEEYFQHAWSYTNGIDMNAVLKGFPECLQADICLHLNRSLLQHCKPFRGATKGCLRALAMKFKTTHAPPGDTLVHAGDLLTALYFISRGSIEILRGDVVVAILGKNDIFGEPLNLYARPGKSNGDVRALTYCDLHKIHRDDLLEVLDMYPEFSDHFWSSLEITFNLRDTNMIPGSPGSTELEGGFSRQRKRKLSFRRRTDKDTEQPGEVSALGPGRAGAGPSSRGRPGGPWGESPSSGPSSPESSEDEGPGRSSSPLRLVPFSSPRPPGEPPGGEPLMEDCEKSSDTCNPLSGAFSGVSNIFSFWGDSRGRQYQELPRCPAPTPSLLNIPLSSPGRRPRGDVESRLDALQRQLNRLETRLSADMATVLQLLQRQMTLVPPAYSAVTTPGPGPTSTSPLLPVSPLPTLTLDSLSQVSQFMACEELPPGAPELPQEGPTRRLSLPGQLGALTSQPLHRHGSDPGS

| SMILES | IC50 [1] [µM] | IC50 [2] [µM] | inhibition at 100 µM [3] [%] |
| --- | --- | --- | --- |
| C[C@H]1CC[C@@H]2N(C1)C[C@H]1[C@@H]3C[C@H]4[C@@H](C[C@H](O)[C@H]5C[C@@H](O)CC[C@@]54C)[C@@H]3CC[C@@H]1[C@]2(C)O [peimine] | 26.1 ± 3.5 |  |  |
| C[C@H]1CC[C@@H]2N(C1)C[C@H]1[C@@H]3C[C@H]4[C@@H](CC(=O)[C@H]5C[C@@H](O)CC[C@@]54C)[C@@H]3CC[C@H]1[C@]2(C)O [sipeimine] |  | ~47.6 |  |
| C[C@H]1CC[C@@H]2N(C1)C[C@H]1[C@@H]3C[C@H]4[C@@H](CC(=O)[C@H]5C[C@@H](O)CC[C@@]54C)[C@@H]3CC[C@@H]1[C@]2(C)O [peiminine] | 36.8 ± 2.5 |  | 12.3 ± 1.4 |
